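Each compound was tested at five concentrations against cells in 96-well plates for 48 hours. TGI: concentration producing complete growth inhibition.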 Where a SMILES comes first, the peptide text is derived from it. [ ]: non-standard residue; d: D form. The star is where a group is joined. Chg = N[CH](C(=O)O)C1CCCCC1; Cbz = O=C(OCc1ccccc1)*; OBn = c1ccc(CO*)cc1
How the values were obtained:
Experiment in all cases: NCI anticancer screen, dose series, 48 h
[1] = test system: NCI-H522 lung
[2] = test system: 786-0 renal
[3] = test system: U251 CNS
[4] = test system: SR leukemia
[5] = test system: HCT-15 colon
[6] = test system: CCRF-CEM leukemia
[7] = test system: SK-MEL-28 melanoma
[8] = test system: PC-3 prostate
[9] = test system: DU-145 prostate
[10] = test system: HL-60(TB) leukemia
[11] = test system: K-562 leukemia
[12] = test system: SNB-19 CNS
[13] = test system: SF-295 CNS
[14] = test system: NCI-H23 lung
[15] = test system: OVCAR-8 ovarian
[16] = test system: HCC-2998 colon
[17] = test system: NCI-H226 lung
[18] = test system: SK-MEL-2 melanoma
[19] = test system: SW-620 colon
[20] = test system: OVCAR-4 ovarian
[21] = test system: KM12 colon
[22] = test system: MALME-3M melanoma
[23] = test system: RXF 393 renal
[24] = test system: HCT-116 colon
[25] = test system: SN12C renal
[26] = test system: COLO 205 colon
[27] = test system: TK-10 renal
[28] = test system: CAKI-1 renal
[29] = test system: OVCAR-5 ovarian
[30] = test system: EKVX NSCLC
[31] = test system: SF-539 CNS
[32] = test system: LOX IMVI melanoma
[33] = test system: HOP-62 NSCLC
[34] = test system: SK-MEL-5 melanoma
[35] = test system: UACC-257 melanoma
[36] = test system: MDA-MB-435
[37] = test system: MDA-MB-231 breast
[38] = test system: RPMI-8226 leukemia
[39] = test system: SF-268 CNS
[40] = test system: NCI-H460 lung
[41] = test system: UO-31 renal
[42] = test system: A549 NSCLC
[43] = test system: OVCAR-3 ovarian
[44] = test system: HS 578T breast
[45] = test system: SK-OV-3 ovarian
[46] = test system: SNB-75 CNS
[47] = test system: HOP-92 NSCLC
[48] = test system: ACHN renal
[49] = test system: MCF7 breast
[50] = test system: MOLT-4 leukemia
[51] = test system: HT29 colon
[52] = test system: UACC-62 melanoma
[53] = test system: NCI/ADR-RES ovarian
[54] = test system: M14 melanoma
[55] = test system: T-47D breast
[56] = test system: MDA-N
[57] = test system: IGROV1 ovarian

## COC(=O)C(NC(=O)C(CC(=O)OCc1ccccc1)NC(=O)OCc1ccccc1)C1CCCCC1 (configuration not stated) (Cbz-Asp(OBn)-[Chg]-OMe; configuration not given here)
[1]
  TGI: > 100 µM
[2]
  TGI: > 100 µM
[3]
  TGI: > 100 µM
[4]
  TGI: > 100 µM
[5]
  TGI: > 100 µM
[6]
  TGI: > 100 µM
[7]
  TGI: > 100 µM
[8]
  TGI: > 100 µM
[9]
  TGI: > 100 µM
[10]
  TGI: > 100 µM
[11]
  TGI: > 100 µM
[12]
  TGI: > 100 µM
[13]
  TGI: > 100 µM
[14]
  TGI: > 100 µM
[15]
  TGI: > 100 µM
[16]
  TGI: > 100 µM
[17]
  TGI: > 100 µM
[18]
  TGI: > 100 µM
[19]
  TGI: > 100 µM
[20]
  TGI: > 100 µM
[21]
  TGI: > 100 µM
[22]
  TGI: > 100 µM
[23]
  TGI: > 100 µM
[24]
  TGI: > 100 µM
[25]
  TGI: > 100 µM
[26]
  TGI: > 100 µM
[27]
  TGI: > 100 µM
[28]
  TGI: > 100 µM
[29]
  TGI: > 100 µM
[30]
  TGI: > 100 µM
[31]
  TGI: > 100 µM
[32]
  TGI: > 100 µM
[33]
  TGI: > 100 µM
[34]
  TGI: > 100 µM
[35]
  TGI: > 100 µM
[36]
  TGI: > 100 µM
[37]
  TGI: > 100 µM
[38]
  TGI: > 100 µM
[39]
  TGI: > 100 µM
[40]
  TGI: > 100 µM
[41]
  TGI: > 100 µM
[42]
  TGI: > 100 µM
[43]
  TGI: > 100 µM
[44]
  TGI: 81.3 µM
[45]
  TGI: > 100 µM
[46]
  TGI: > 100 µM
[47]
  TGI: > 100 µM
[48]
  TGI: > 100 µM
[49]
  TGI: > 100 µM
[50]
  TGI: > 100 µM
[51]
  TGI: > 100 µM
[52]
  TGI: > 100 µM
[53]
  TGI: > 100 µM
[54]
  TGI: > 100 µM
[55]
  TGI: > 100 µM
[56]
  TGI: > 100 µM
[57]
  TGI: > 100 µM

— PubChem BioAssay (NCI)
